Source: patent US5464834A, “N-substituted N'-heterobicyclic piperazines having pharmaceutical activity” (Adir et Compagnie, priority 1992, dated 1995)
Read-outs that look alike come from different tables or passages of the source.

Legend:
5HT1A receptors [1] = biological target: T1, 5HT1A receptors (Rattus norvegicus, UniProt P19327); assay: Drug discrimination (DD) 8-OH-DPAT; assay type: in vivo, rat (male Wistar); parameters: from tissue; host or cells: whole living male Wistar rats (endogenous receptor); settings: for ED50: rat, sc, rats trained on 8-OH-DPAT 0.31 mg/kg
T1 sequence (P19327 1-422): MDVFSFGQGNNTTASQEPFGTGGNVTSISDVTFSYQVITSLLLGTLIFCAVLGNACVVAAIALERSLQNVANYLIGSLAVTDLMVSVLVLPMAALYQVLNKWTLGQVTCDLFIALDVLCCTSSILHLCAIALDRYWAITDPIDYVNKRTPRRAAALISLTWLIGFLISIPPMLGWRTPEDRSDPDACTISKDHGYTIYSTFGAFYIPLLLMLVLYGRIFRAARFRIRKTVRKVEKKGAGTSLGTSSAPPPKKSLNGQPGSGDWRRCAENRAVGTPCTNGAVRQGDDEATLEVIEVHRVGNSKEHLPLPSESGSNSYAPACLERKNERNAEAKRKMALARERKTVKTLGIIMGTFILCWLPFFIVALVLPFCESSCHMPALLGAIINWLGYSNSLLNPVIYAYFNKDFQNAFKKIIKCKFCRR
Protocol: (§1) The tests were carried out using male Wistar rats weighing 200 to 220 g having free access to their food and to their drinking water in standard cages.
Male rats are maintained at 85% of their normal body weight by means of food restriction. In soundproofed chambers the animals are trained to press a pedal to obtain food according to an FR10 procedure (Fixed Ratio 10; the food is supplied to the rat when it has pressed the lever 10 times).
Daily sessions of 15 minutes are preceded by an injection of solvent or of the training drug (0.31 mg/kg of 8-OH-DPAT, j.p.). The animal receives a pellet of food after pressing 10 times on the "solvent" or "drug" pedal according to the compound administered before the session.
After the learning period the animals are tested twice a week (Wednesday and Friday). On the other three days training sessions are carried out.
On the training days the rats are given either solvent or 8-OH-DPAT 15 minutes before being tested.
On the test days the rats receive the chemical substance 60 minutes before the session.
The capacity of the chemical substance administered to induce a response (pressing on the "solvent" or "drug" (8-OH-DPAT ) lever ) is recorded.
7 animals chosen at random are used for each substance and for each dose. During the test period, the lever on which the rat first presses 10 times is determined as the lever chosen--a food pellet is then delivered. That selected lever will be reinforced by the delivery of food up to the end of the test session. The percentage of animals selecting the "drug" lever at a particular dose is calculated. In addition, the total number of responses carried out on the two levers is expressed as a percentage of the number of responses carried out on the "solvent" lever obtained on the occasion of a preceding training session.
The doses of the compounds tested are all expressed in base terms. Unless specified otherwise, all of the compounds were dissolved in sterile water (to which if necessary a few drops of lactic acid were added) and administered at a volume of 1 ml/kg s.c.

5HT1A receptors [2] = biological target: T1, 5HT1A receptors; assay: In vitro binding test, 5HT1A receptors ([3H]-8-OH-DPAT, hippocampus membranes); parameters: The hippocampus of the brains of decapitated rats was immediately frozen; from tissue; host or cells: hippocampus membranes of male Wistar rats; species or system rat (male Wistar); settings: rat hippocampus; [3H]-8-OH-DPAT 0.4 nM; 30 min at 25° C; read-out: AFFINITY (pKi) (converted)
Protocol: as §1
The hippocampus of the brains of decapitated rats was immediately frozen on solid carbon dioxide and then kept at -80° C. until preparation of the membranes. The tissue was homogenised at 4° C. in the appropriate buffer using a Polytron (Brinkman Instruments, Lucerne, Switzerland) and centrifuged at 20,000 revs/min.
Incubation was carried out for 30 minutes at 25° C. Non-specific binding was established by […] of 5HT. The tests were terminated by rapid filtration using a Brandel harvester through glass fibre filters pretreated with 0.1% polyethylene imine.
The IC50 values were determined in accordance with process 8 of Tallarida R. J. and Murray R. B., Manual of Pharmacological calculations with computer programs, Springer Verlag, New York, (1987).
The pKi was calculated in accordance with the following formula: [formula] wherein [L] is the concentration of the hot ligand (^[3] H-8-OH-DPAT, 0.4 nM) and Kd is the apparent dissociation constant determined from the saturation experiments.
The substances studied were dissolved in the incubation buffer.
Binding of 5HT1A receptors

c1cc2c(c(N3CCN(CCCc4ccsc4)CC3)c1)OCCO2 [Example 1, 4-(Benzodioxan-5-yl)-1-[3-(thiophen-3-yl)propyl]piperazine]
ED50 (5HT1A receptors [1]; antagonist, vs 8-OH-DPAT, read-out: DD 8-OH-DPAT ID50 (95% CL) + DPAT): 0.63 mg/kg
ED50 (5HT1A receptors [1]; compound alone, 60 min before session, read-out: DD 8-OH-DPAT ED50 (95% CL) alone): > 2.5 mg/kg
% MPA (% maximum possible antagonism), DD (5HT1A receptors [1]; vs 8-OH-DPAT): 100%
Ki (5HT1A receptors [2]): 1.74 nM
